Test results published in PubChem BioAssay AID1963847 (Molecular Pharmacology Branch, DTP, NCI, 2024).

Test system: 415267-285-R-J2-PDC complex spheroid viability
Assay: Anticancer human tumor 415267-285-R-J2-PDC patient-derived breast carcinoma cell line growth inhibition [POLQ]
Details: for IC50: curve of first compound; for viability, T/C: stronger effect = lower value
In short: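 Patient-derived tumour cells were co-cultured with HUVEC and mesenchymal stem cells as multicellular spheroids at 37 °C. They were treated with POLQ inhibitors (novobiocin, ART-558, RP6685) alone or combined with other agents. Top concentrations were at or near clinical Cmax (otherwise 10 microM; SN-38 at 1 microM), decreasing in half-log steps.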

[1] = second compound 0.0316 µM, first compound 0.0316 µM
[2] = second compound 0.0316 µM, first compound 0.1 µM
[3] = second compound 0.0316 µM, first compound 0.316 µM
[4] = second compound 0.0316 µM, first compound 1 µM
[5] = second compound 0.0316 µM, first compound 3.16 µM
[6] = second compound 0.0316 µM, first compound 10 µM
[7] = second compound 0.1 µM, first compound 0.0316 µM
[8] = second compound 0.1 µM, first compound 0.1 µM
[9] = second compound 0.1 µM, first compound 0.316 µM
[10] = second compound 0.1 µM, first compound 1 µM
[11] = second compound 0.1 µM, first compound 3.16 µM
[12] = second compound 0.1 µM, first compound 10 µM
[13] = second compound 0.316 µM, first compound 0.0316 µM
[14] = second compound 0.316 µM, first compound 0.1 µM
[15] = second compound 0.316 µM, first compound 0.316 µM
[16] = second compound 0.316 µM, first compound 1 µM
[17] = second compound 0.316 µM, first compound 3.16 µM
[18] = second compound 0.316 µM, first compound 10 µM
[19] = second compound 1 µM, first compound 0.0316 µM
[20] = second compound 1 µM, first compound 0.1 µM
[21] = second compound 1 µM, first compound 0.316 µM
[22] = second compound 1 µM, first compound 1 µM
[23] = second compound 1 µM, first compound 3.16 µM
[24] = second compound 1 µM, first compound 10 µM
[25] = second compound 3.16 µM, first compound 0.0316 µM
[26] = second compound 3.16 µM, first compound 0.1 µM
[27] = second compound 3.16 µM, first compound 0.316 µM
[28] = second compound 3.16 µM, first compound 1 µM
[29] = second compound 3.16 µM, first compound 3.16 µM
[30] = second compound 3.16 µM, first compound 10 µM
[31] = second compound 10 µM, first compound 0.0316 µM
[32] = second compound 10 µM, first compound 0.1 µM
[33] = second compound 10 µM, first compound 0.316 µM
[34] = second compound 10 µM, first compound 1 µM
[35] = second compound 10 µM, first compound 3.16 µM
[36] = second compound 10 µM, first compound 10 µM
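Note: spheroids exposed to compounds for one week before readout.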
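Throughout, for viability, T/C: luminescence used as stand-in measure of viable cells; 100% = DMSO vehicle control viability.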

Compound: CC(=O)O[C@H]1C(=O)[C@@]2(C)[C@H]([C@H](OC(=O)c3ccccc3)[C@]3(O)C[C@H](OC(=O)[C@H](O)[C@@H](NC(=O)c4ccccc4)c4ccccc4)C(C)=C1C3(C)C)[C@]1(OC(C)=O)CO[C@@H]1C[C@@H]2O + Nc1ccc(C#CCN(C(=O)Cc2ncc(C(F)(F)F)cc2C(F)(F)F)c2ccc(F)cc2)nn1
- IC50 (second compound 0.0316 µM): < 9.49 nM
- IC50 (second compound 0.1 µM): < 9.49 nM
- IC50 (second compound 0.316 µM): < 9.49 nM
- IC50 (second compound 1 µM): < 9.49 nM
- IC50 (second compound 3.16 µM): < 9.49 nM
- IC50 (second compound 10 µM): < 9.49 nM
- viability, T/C (second compound 0.0316 µM, first compound 0.00949 µM): 16.4%
- viability, T/C (second compound 0.0316 µM, first compound 0.03 µM): 11.2%
- viability, T/C (second compound 0.0316 µM, first compound 0.0949 µM): 7.8%
- viability, T/C (second compound 0.0316 µM, first compound 0.3 µM): 12.3%
- viability, T/C (second compound 0.0316 µM, first compound 0.949 µM): 7.65%
- viability, T/C (second compound 0.0316 µM, first compound 3 µM): 9.67%
- viability, T/C (second compound 0.1 µM, first compound 0.00949 µM): 28.2%
- viability, T/C (second compound 0.1 µM, first compound 0.03 µM): 10.1%
- viability, T/C (second compound 0.1 µM, first compound 0.0949 µM): 7.84%
- viability, T/C (second compound 0.1 µM, first compound 0.3 µM): 8.82%
- viability, T/C (second compound 0.1 µM, first compound 0.949 µM): 5.94%
- viability, T/C (second compound 0.1 µM, first compound 3 µM): 7.04%
- viability, T/C (second compound 0.316 µM, first compound 0.00949 µM): 25.4%
- viability, T/C (second compound 0.316 µM, first compound 0.03 µM): 10.4%
- viability, T/C (second compound 0.316 µM, first compound 0.0949 µM): 8.11%
- viability, T/C (second compound 0.316 µM, first compound 0.3 µM): 6.83%
- viability, T/C (second compound 0.316 µM, first compound 0.949 µM): 6.61%
- viability, T/C (second compound 0.316 µM, first compound 3 µM): 9.16%
- viability, T/C (second compound 1 µM, first compound 0.00949 µM): 17.4%
- viability, T/C (second compound 1 µM, first compound 0.03 µM): 9.17%
- viability, T/C (second compound 1 µM, first compound 0.0949 µM): 6.64%
- viability, T/C (second compound 1 µM, first compound 0.3 µM): 8.77%
- viability, T/C (second compound 1 µM, first compound 0.949 µM): 7.65%
- viability, T/C (second compound 1 µM, first compound 3 µM): 7.96%
- viability, T/C (second compound 3.16 µM, first compound 0.00949 µM): 14.3%
- viability, T/C (second compound 3.16 µM, first compound 0.03 µM): 10%
- viability, T/C (second compound 3.16 µM, first compound 0.0949 µM): 8.75%
- viability, T/C (second compound 3.16 µM, first compound 0.3 µM): 6.53%
- viability, T/C (second compound 3.16 µM, first compound 0.949 µM): 7.79%
- viability, T/C (second compound 3.16 µM, first compound 3 µM): 7.72%
- viability, T/C (second compound 10 µM, first compound 0.00949 µM): 13.3%
- viability, T/C (second compound 10 µM, first compound 0.03 µM): 9.57%
- viability, T/C (second compound 10 µM, first compound 0.0949 µM): 8.39%
- viability, T/C (second compound 10 µM, first compound 0.3 µM): 9.61%
- viability, T/C (second compound 10 µM, first compound 0.949 µM): 8.58%
- viability, T/C (second compound 10 µM, first compound 3 µM): 8.25%

Compound: COc1cc(C2c3cc4c(cc3C(OC3OC5COC(C)OC5C(O)C3O)C3COC(=O)C23)OCO4)cc(OC)c1O (stereo unspecified) + Nc1ccc(C#CCN(C(=O)Cc2ncc(C(F)(F)F)cc2C(F)(F)F)c2ccc(F)cc2)nn1
- IC50 (second compound 0.0316 µM): 193 nM
- IC50 (second compound 0.1 µM): 193 nM
- IC50 (second compound 0.316 µM): 194 nM
- IC50 (second compound 1 µM): 169 nM
- IC50 (second compound 3.16 µM): 175 nM
- IC50 (second compound 10 µM): 158 nM
- viability, T/C [1]: 93.4%
- viability, T/C [2]: 91.5%
- viability, T/C [3]: 19%
- viability, T/C [4]: 6.3%
- viability, T/C [5]: 4.79%
- viability, T/C [6]: 4.39%
- viability, T/C [7]: 106%
- viability, T/C [8]: 102%
- viability, T/C [9]: 11.6%
- viability, T/C [10]: 6.09%
- viability, T/C [11]: 4.34%
- viability, T/C [12]: 4.16%
- viability, T/C [13]: 107%
- viability, T/C [14]: 97.8%
- viability, T/C [15]: 14.4%
- viability, T/C [16]: 6.8%
- viability, T/C [17]: 5.09%
- viability, T/C [18]: 4.49%
- viability, T/C [19]: 106%
- viability, T/C [20]: 79.4%
- viability, T/C [21]: 15%
- viability, T/C [22]: 6.3%
- viability, T/C [23]: 4.91%
- viability, T/C [24]: 4.43%
- viability, T/C [25]: 119%
- viability, T/C [26]: 84.3%
- viability, T/C [27]: 13.4%
- viability, T/C [28]: 6.83%
- viability, T/C [29]: 4.94%
- viability, T/C [30]: 4.27%
- viability, T/C [31]: 103%
- viability, T/C [32]: 72.5%
- viability, T/C [33]: 16.2%
- viability, T/C [34]: 6.36%
- viability, T/C [35]: 4.59%
- viability, T/C [36]: 4.33%

Compound: COc1cccc2c1C(=O)c1c(O)c3c(c(O)c1C2=O)CC(O)(C(=O)CO)CC3OC1CC(N)C(O)C(C)O1 (stereo unspecified) + Nc1ccc(C#CCN(C(=O)Cc2ncc(C(F)(F)F)cc2C(F)(F)F)c2ccc(F)cc2)nn1
- IC50 (second compound 0.0316 µM): 55.7 nM
- IC50 (second compound 0.1 µM): 54.6 nM
- IC50 (second compound 0.316 µM): 57.9 nM
- IC50 (second compound 1 µM): 50 nM
- IC50 (second compound 3.16 µM): 49.5 nM
- IC50 (second compound 10 µM): < 31.6 nM
- viability, T/C [1]: 81.1%
- viability, T/C [2]: 18%
- viability, T/C [3]: 4.33%
- viability, T/C [4]: 0.75%
- viability, T/C [5]: 1.29%
- viability, T/C [6]: 3.55%
- viability, T/C [7]: 80.9%
- viability, T/C [8]: 15.8%
- viability, T/C [9]: 3.25%
- viability, T/C [10]: 0.65%
- viability, T/C [11]: 0.93%
- viability, T/C [12]: 3.6%
- viability, T/C [13]: 80.6%
- viability, T/C [14]: 22.5%
- viability, T/C [15]: 3.28%
- viability, T/C [16]: 0.8%
- viability, T/C [17]: 1.04%
- viability, T/C [18]: 3.39%
- viability, T/C [19]: 76.9%
- viability, T/C [20]: 9.51%
- viability, T/C [21]: 3.66%
- viability, T/C [22]: 0.83%
- viability, T/C [23]: 1.07%
- viability, T/C [24]: 4.04%
- viability, T/C [25]: 73.7%
- viability, T/C [26]: 13%
- viability, T/C [27]: 4.28%
- viability, T/C [28]: 1.36%
- viability, T/C [29]: 1.16%
- viability, T/C [30]: 3.92%
- viability, T/C [31]: 49.4%
- viability, T/C [32]: 9.57%
- viability, T/C [33]: 4.23%
- viability, T/C [34]: 1.37%
- viability, T/C [35]: 1.54%
- viability, T/C [36]: 4.35%
